Source: ChEMBL document CHEMBL5137046, “Discovery of novel 2,3-dihydro-1H-inden-1-ones as dual PDE4/AChE inhibitors with more potency against neuroinflammation for the treatment of Alzheimer's disease” (Eur J Med Chem, 2022)
Calls of active or inactive are those of the source. No cut-off for these calls is given here.

Key:
Acetylcholinesterase = Acetylcholinesterase (Electrophorus electricus, UniProt O42275); experiment: Inhibition of electric eel AChE using acetylthiocholine iodide as substrate preincubated with enzyme for 20 mins followed by substrate addition and measured after 10 mins by Ellman's method
Acetylcholinesterase, sequence (O42275 whole entry): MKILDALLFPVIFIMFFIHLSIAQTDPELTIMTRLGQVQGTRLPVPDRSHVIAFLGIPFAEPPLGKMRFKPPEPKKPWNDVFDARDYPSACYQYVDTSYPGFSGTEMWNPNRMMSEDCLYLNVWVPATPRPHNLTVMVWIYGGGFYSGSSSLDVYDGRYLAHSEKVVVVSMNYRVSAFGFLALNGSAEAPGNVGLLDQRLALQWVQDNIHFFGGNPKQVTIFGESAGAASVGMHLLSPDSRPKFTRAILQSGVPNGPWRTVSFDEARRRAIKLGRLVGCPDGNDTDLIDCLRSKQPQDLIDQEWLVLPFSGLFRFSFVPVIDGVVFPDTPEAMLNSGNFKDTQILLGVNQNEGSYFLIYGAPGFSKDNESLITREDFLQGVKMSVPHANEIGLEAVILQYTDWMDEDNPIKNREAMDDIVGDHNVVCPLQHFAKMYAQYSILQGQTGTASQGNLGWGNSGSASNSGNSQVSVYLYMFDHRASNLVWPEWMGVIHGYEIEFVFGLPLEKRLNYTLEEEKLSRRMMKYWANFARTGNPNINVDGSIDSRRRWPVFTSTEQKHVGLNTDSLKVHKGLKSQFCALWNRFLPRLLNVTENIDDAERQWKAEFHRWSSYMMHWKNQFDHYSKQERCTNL

[1] = molecular target: T1, 3',5'-cyclic-AMP phosphodiesterase 4D (Homo sapiens, UniProt Q08499); experiment: Inhibition of PDE4D7 (unknown origin)
T1 sequence (Q08499 whole entry): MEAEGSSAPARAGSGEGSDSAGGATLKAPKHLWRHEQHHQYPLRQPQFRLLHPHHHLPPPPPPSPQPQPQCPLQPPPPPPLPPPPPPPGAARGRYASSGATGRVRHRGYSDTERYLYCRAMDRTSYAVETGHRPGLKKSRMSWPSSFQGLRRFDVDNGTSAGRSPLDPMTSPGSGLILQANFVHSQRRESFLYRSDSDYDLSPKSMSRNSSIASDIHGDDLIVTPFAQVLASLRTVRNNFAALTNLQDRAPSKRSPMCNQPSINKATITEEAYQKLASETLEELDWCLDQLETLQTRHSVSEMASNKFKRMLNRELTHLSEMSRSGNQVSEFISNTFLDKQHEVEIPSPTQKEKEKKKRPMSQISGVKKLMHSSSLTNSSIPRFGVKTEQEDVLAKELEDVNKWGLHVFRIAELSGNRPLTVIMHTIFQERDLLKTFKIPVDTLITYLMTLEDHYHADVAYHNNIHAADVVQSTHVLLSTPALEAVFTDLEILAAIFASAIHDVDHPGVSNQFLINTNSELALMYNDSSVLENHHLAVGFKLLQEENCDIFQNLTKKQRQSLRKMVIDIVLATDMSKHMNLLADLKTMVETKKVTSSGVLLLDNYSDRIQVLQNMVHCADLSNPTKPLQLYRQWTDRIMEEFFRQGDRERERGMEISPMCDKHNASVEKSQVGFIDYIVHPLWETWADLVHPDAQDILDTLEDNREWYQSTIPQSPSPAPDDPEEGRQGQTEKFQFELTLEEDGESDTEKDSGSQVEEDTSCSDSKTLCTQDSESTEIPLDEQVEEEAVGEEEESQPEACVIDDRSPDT

[2] = molecular target: Acetylcholinesterase (Electrophorus electricus) (UniProt O42275); experiment: Inhibition of electric eel AChE using acetylthiocholine iodide as substrate at 10 uM preincubated with enzyme for 20 mins followed by substrate addition and measured after 10 mins by Ellman's method; settings: time 30.0 min
Acetylcholinesterase (Electrophorus electricus), sequence (O42275 24-633 limits assumed): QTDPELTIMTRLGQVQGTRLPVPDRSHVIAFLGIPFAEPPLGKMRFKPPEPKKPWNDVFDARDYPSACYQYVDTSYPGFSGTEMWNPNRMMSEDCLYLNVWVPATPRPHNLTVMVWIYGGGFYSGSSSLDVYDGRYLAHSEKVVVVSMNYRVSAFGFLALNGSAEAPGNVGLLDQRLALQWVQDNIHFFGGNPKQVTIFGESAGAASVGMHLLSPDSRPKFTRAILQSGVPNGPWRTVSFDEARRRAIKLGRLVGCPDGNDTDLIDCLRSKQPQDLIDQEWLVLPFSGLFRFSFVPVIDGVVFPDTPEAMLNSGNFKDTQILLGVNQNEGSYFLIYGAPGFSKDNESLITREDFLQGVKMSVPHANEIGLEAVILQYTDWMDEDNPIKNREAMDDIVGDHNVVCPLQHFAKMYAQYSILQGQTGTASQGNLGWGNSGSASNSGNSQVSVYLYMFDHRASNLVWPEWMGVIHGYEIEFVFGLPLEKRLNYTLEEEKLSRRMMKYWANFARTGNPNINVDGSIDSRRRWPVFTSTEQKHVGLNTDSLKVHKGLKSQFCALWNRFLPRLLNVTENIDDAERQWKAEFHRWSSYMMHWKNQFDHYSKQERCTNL

[3] = molecular target: T1, 3',5'-cyclic-AMP phosphodiesterase 4D; experiment: Inhibition of PDE4D7 (unknown origin) at 10 uM
[4] = molecular target: Acetylcholinesterase (Electrophorus electricus) (UniProt O42275); experiment: Potency index, ratio of donepezil IC50 to test compound IC50 for inhibition of electric eel AChE using acetylthiocholine iodide as substrate preincubated with enzyme for 20 mins followed by substrate addition and measured after 10 mins by Ellman's method; settings: time 30.0 min
Cholinesterase = Cholinesterase (Equus caballus, UniProt P81908); experiment: Inhibition of horse serum BuChE using butyrylthiocholine iodide as substrate preincubated with enzyme for 20 mins followed by substrate addition and measured after 10 mins by Ellman's method; assay type: cell-free
Cholinesterase, sequence (P81908 whole entry): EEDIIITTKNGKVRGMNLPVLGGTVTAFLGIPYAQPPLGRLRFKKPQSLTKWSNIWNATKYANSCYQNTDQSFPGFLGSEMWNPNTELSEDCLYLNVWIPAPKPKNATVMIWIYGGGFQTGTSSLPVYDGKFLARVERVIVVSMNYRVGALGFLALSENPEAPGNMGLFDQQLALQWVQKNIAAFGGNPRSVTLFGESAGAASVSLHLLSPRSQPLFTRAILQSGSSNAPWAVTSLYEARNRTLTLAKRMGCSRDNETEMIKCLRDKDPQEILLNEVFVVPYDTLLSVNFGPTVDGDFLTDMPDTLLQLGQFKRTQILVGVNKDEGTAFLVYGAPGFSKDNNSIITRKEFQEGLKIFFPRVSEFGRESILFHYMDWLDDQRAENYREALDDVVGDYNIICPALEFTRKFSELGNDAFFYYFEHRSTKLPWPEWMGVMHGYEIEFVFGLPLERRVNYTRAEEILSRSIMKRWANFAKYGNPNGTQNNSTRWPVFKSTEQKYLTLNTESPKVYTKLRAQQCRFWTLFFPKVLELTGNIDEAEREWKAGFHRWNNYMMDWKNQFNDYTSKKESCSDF

[5] = molecular target: Dual specificity calcium/calmodulin-dependent 3',5'-cyclic nucleotide phosphodiesterase 1A (Homo sapiens, UniProt P54750); experiment: Inhibition of PDE1A (unknown origin)
Dual specificity calcium/calmodulin-dependent 3',5'-cyclic nucleotide phosphodiesterase 1A, sequence (P54750 whole entry): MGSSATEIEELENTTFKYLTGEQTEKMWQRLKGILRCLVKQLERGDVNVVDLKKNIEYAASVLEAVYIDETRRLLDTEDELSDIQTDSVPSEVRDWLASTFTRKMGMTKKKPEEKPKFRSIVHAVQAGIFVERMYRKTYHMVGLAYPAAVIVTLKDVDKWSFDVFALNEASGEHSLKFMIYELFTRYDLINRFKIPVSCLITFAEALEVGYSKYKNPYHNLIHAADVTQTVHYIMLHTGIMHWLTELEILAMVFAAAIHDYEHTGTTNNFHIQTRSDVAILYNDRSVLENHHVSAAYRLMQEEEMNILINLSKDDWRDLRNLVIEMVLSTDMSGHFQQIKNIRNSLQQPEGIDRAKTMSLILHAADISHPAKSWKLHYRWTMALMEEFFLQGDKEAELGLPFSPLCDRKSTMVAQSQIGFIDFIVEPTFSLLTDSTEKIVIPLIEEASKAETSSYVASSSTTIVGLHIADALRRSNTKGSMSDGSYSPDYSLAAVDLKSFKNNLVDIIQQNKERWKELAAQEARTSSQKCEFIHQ

[6] = molecular target: cGMP-dependent 3',5'-cyclic phosphodiesterase (Homo sapiens, UniProt O00408); experiment: Inhibition of PDE2A (unknown origin)
cGMP-dependent 3',5'-cyclic phosphodiesterase, sequence (O00408 whole entry): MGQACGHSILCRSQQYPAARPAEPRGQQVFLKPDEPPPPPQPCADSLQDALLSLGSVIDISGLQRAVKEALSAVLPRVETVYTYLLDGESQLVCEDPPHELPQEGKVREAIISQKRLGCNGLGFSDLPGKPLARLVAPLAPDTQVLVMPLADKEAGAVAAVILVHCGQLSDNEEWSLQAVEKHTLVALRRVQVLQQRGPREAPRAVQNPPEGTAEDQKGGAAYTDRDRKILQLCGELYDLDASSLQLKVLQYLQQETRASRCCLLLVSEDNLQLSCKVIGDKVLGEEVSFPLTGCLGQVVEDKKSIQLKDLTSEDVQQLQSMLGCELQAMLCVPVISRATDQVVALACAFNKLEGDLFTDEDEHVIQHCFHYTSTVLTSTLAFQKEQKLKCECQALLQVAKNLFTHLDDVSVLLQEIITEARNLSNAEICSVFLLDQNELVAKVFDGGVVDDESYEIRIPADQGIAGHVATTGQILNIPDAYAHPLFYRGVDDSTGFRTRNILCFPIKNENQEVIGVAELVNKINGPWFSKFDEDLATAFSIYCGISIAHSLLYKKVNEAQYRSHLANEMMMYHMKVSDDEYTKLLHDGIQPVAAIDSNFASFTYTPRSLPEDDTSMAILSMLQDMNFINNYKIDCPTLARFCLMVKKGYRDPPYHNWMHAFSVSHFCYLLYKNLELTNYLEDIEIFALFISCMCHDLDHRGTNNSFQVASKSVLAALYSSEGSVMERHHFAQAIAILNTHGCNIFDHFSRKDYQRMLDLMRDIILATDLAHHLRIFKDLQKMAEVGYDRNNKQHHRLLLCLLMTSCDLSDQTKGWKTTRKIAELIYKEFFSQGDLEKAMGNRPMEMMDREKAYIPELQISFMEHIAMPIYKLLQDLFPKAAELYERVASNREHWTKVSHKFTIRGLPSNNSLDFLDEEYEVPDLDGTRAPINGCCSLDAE

[7] = molecular target: cGMP-inhibited 3',5'-cyclic phosphodiesterase 3B (Homo sapiens, UniProt Q13370); experiment: Inhibition of PDE3B (unknown origin)
[8] = molecular target: cGMP-specific 3',5'-cyclic phosphodiesterase (Homo sapiens, UniProt O76074); experiment: Inhibition of PDE5A (unknown origin)
[9] = Inhibition of […] (unknown origin); set-up: species or system Homo sapiens
[10] = molecular target: High affinity 3',5'-cyclic-AMP phosphodiesterase 7A (Homo sapiens, UniProt Q13946); experiment: Inhibition of PDE7A (unknown origin)
High affinity 3',5'-cyclic-AMP phosphodiesterase 7A, sequence (Q13946 whole entry): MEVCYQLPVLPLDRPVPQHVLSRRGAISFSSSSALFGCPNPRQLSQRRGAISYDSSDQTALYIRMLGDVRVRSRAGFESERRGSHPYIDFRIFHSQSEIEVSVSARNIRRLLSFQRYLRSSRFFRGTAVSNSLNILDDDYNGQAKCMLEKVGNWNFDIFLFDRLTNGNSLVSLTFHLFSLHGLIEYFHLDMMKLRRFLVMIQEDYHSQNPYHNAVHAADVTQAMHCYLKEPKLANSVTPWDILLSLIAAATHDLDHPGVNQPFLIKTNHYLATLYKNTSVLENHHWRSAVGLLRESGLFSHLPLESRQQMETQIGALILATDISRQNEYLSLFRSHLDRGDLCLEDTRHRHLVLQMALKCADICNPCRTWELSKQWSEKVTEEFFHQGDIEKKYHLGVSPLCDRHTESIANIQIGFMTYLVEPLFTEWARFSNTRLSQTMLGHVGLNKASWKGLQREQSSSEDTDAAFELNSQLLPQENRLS

[11] = molecular target: High affinity cAMP-specific and IBMX-insensitive 3',5'-cyclic phosphodiesterase 8A (Homo sapiens, UniProt O60658); experiment: Inhibition of PDE8A1 (unknown origin)
[12] = molecular target: High affinity cGMP-specific 3',5'-cyclic phosphodiesterase 9A (Homo sapiens, UniProt O76083); experiment: Inhibition of PDE9A2 (unknown origin)
[13] = Neurotoxicity against rat PC-12 cells assessed as reduction in cell viability up to 20 uM incubated for 24 hrs by MTT assay; assay type: toxicity, cell-based; settings: pc-12, 24 h
PC-12 [14] = experiment: Neuroprotective activity against rat PC-12 cells assessed as inhibition of Abeta(25-35)-induced cytotoxicity by measuring increase in cell viability at 10 to 20 uM incubated for 24 hrs by MTT assay; assay type: functional, cell-based; settings: dose 10-20 µM
BV-2 [15] = experiment: Cytotoxicity against mouse BV-2 cells assessed as reduction in cell viability at 20 uM by MTT assay; assay type: toxicity, cell-based; settings: bv-2, 20 µM
BV-2 [16] = experiment: Anti-neuroinflammatory activity against LPS-stimulated mouse BV-2 cells assessed as reduction in TNF-alpha production pretreated for 1 hr with compound followed by LPS treatment for 24 hrs by ELISA; assay type: functional, cell-based; settings: dose 5-20 µM, time 25.0 hrs, DDE = dose-dependent effect
BV-2 [17] = experiment: Anti-neuroinflammatory activity against LPS-stimulated mouse BV-2 cells assessed as reduction in TNF-alpha production at 20 uM pretreated for 1 hr with compound followed by LPS treatment for 24 hrs by ELISA; assay type: functional, cell-based; settings: time 25.0 hrs
Mus musculus [18] = experiment: In vivo inhibition of AChE in hippocampus of aggregated Abeta(25-35)-induced Alzheimer's disease C57BL/6 mouse model at 2 mg/kg, iv measured after 2 hrs by Ellman's method; assay type: functional, organism-based
Mus musculus [19] = experiment: Anti-neuroinflammatory activity against aggregated Abeta(25-35)-induced Alzheimer's disease C57BL/6 mouse model assessed as inhibition of TNF-alpha production in hippocampus at 2 mg/kg, iv measured after 2 hrs by ELISA; assay type: functional, organism-based
PC-12 [20] = experiment: Neuroprotective activity against rat PC-12 cells assessed as inhibition of Abeta(25-35)-induced cytotoxicity by measuring increase in cell viability at 10 uM incubated for 24 hrs by MTT assay; assay type: functional, cell-based
Mus musculus [21] = experiment: Anti-neuroinflammatory activity against aggregated Abeta(25-35)-induced Alzheimer's disease C57BL/6 mouse model assessed as inhibition of TNF-alpha production in hippocampus at 1 mg/kg, iv measured after 2 hrs in presence of 1 mg/kg, iv rolipram by ELISA; assay type: functional, organism-based
[22] = molecular target: Acetylcholinesterase (Electrophorus electricus) (UniProt O42275); experiment: Inhibition of electric eel AChE using acetylthiocholine iodide as substrate at 1 uM preincubated with enzyme for 20 mins followed by substrate addition and measured after 10 mins by Ellman's method; settings: time 30.0 min

Row | SMILES | IC50 (Acetylcholinesterase) [nM] | IC50 [1] [µM] | inhibition [2] [%] | inhibition [3] [%] | other results
1 | COc1cc2c(cc1OC1CCCC1)C(=O)C(Cc1ccccn1)C2 (stereo not given) | 38300 | 8.7 | 11 | – | –
2 | COc1cc2c(cc1OC1CCCC1)C(=O)/C(=C/c1ccncc1)C2 | 11400 | 3.1 | 51 | – | –
3 | COc1cc2c(cc1OC1CCCC1)CC(Cc1ccncc1)C2=O (stereo not given) | 30500 | 5.3 | 27 | – | –
4 | COc1ccc(CC2Cc3cc(OC)c(OCCN4CCCCC4)cc3C2=O)cc1 (stereo not given) | 810 | – | – | < 10 | –
5 | COc1cc2c(cc1OCCN1CCCCC1)C(=O)C(Cc1cccnc1)C2 (stereo not given) | 280 | 1.88 | – | – | Ratio IC50 [4]: 19; IC50 (Cholinesterase): 36.9 µM; IC50 [5]: > 50 µM; IC50 [6]: > 50 µM; IC50 [7]: > 50 µM; IC50 [8]: > 50 µM; IC50 [9]: > 50 µM; IC50 [10]: > 50 µM; IC50 [11]: > 50 µM; IC50 [12]: > 50 µM; Activity [13]: Non-Toxic; Activity (PC-12 [14]): Active; Activity (BV-2 [15]): Non-Toxic; Activity (BV-2 [16]): Dde; Activity (BV-2 [17]): Active; inhibition (Mus musculus [18]): Active; Activity (Mus musculus [19]): Active
6 | COc1cc2c(cc1OC)C(=O)C(CC1CCN(Cc3ccccc3)CC1)C2 (stereo not given) [DONEPEZIL] | – | 36 | – | – | Activity (PC-12 [20]): Active; Activity (BV-2 [17]): Active; inhibition (Mus musculus [18]): Active; Activity (Mus musculus [19]): Active; Activity (Mus musculus [21]): Active
7 | COc1cc2c(cc1OCCN1CCCC1)C(=O)C(Cc1ccncc1)C2 (stereo not given) | 1080 | – | – | < 10 | –
8 | COc1cc2c(cc1OCC1CC1)C(=O)C(CC1CCNCC1)C2 (stereo not given) | – | – | 21 | < 10 | –
9 | COc1cc2c(cc1OC1CCCC1)CC(CC1CCN(Cc3ccccc3)CC1)C2=O (stereo not given) | 210 | – | – | < 10 | –
10 | COc1cc2c(cc1OCCN1CCCCC1)C(=O)C(Cc1ccncc1)C2 (stereo not given) | 70 | 16.4 | – | – | –
11 | COc1cc2c(cc1OC1CCCC1)C/C(=C\c1cccnc1)C2=O | 11700 | – | 50 | < 10 | –
12 | COc1cc2c(cc1OC1CCCC1)C(=O)/C(=C/c1ccccn1)C2 | – | – | 39 | 11 | –
13 | COc1cc2c(cc1OC1CCCC1)C(=O)/C(=C/c1cccnc1)C2 | 8400 | 4.1 | 56 | – | –
14 | COc1cc2c(cc1OC1CCCC1)C(=O)C(Cc1ccncc1)C2 (stereo not given) | 55900 | 3.4 | 15 | – | –
15 | COc1cc2c(cc1OC1CCCC1)C(=O)C(CC1CCNCC1)C2 (stereo not given) | – | – | 11 | < 10 | –
16 | COc1cc2c(cc1OC1CCCC1)C(=O)C(CC1CCN(Cc3ccccc3)CC1)C2 (stereo not given) | 58 | – | – | < 10 | –

Row | SMILES | IC50 (Acetylcholinesterase) [nM] | IC50 [1] [µM] | inhibition [2] [%] | inhibition [3] [%] | other results
17 | COc1cc2c(cc1OCC(C)C)C(=O)C(CC1CCN(Cc3ccccc3)CC1)C2 (stereo not given) | 500 | – | – | < 10 | –
18 | COc1cc2c(cc1OCC(C)C)CC(CC1CCNCC1)C2=O (stereo not given) | – | – | < 10 | < 10 | –
19 | COc1cc2c(cc1OCC1CC1)CC(CC1CCNCC1)C2=O (stereo not given) | – | – | 25 | < 10 | –
20 | COc1ccc(CC2Cc3cc(OC)c(OCCN4CCCC4)cc3C2=O)cc1 (stereo not given) | – | – | – | – | inhibition [22]: 20%
21 | COc1ccc(C2CNC(=O)C2)cc1OC1CCCC1 (stereo not given) | – | – | – | – | Activity (PC-12 [20]): Active
22 | COc1cc2c(cc1OCC(C)C)C(=O)C(Cc1ccncc1)C2 (stereo not given) | – | – | 14 | 34 | –
23 | COc1cc2c(cc1OCC(C)C)C(=O)C(CC1CCNCC1)C2 (stereo not given) | – | – | 12 | < 10 | –
24 | COc1cc2c(cc1OCC1CC1)CC(Cc1ccncc1)C2=O (stereo not given) | – | – | 23 | 31 | –
25 | COc1cc2c(cc1OCC1CC1)C(=O)C(Cc1ccncc1)C2 (stereo not given) | 35900 | 6.3 | 25 | – | –
26 | COc1cc2c(cc1OCC1CC1)CC(CC1CCN(Cc3ccccc3)CC1)C2=O (stereo not given) | 210 | – | – | < 10 | –
27 | COc1cc2c(cc1OCC(C)C)CC(CC1CCN(Cc3ccccc3)CC1)C2=O (stereo not given) | 210 | – | – | < 10 | –
28 | COc1cc2c(cc1OC1CCCC1)C(=O)C(Cc1cccnc1)C2 (stereo not given) | – | 23 | 26 | 34 | –
29 | COc1cc2c(cc1OCC(C)C)CC(Cc1ccncc1)C2=O (stereo not given) | 64300 | 4.2 | 15 | – | –
30 | COc1cc2c(cc1OCC1CC1)C(=O)C(CC1CCN(Cc3ccccc3)CC1)C2 (stereo not given) | 45 | – | – | < 10 | –
31 | COc1cc2c(cc1OC1CCCC1)CC(CC1CCNCC1)C2=O (stereo not given) | – | – | 19 | < 10 | –
